Read-outs that look alike come from different tables or passages of the source.
Experiments:
attention and memory [1] = conditions: healthy humans; cited from earlier work
attention and memory [2] = conditions: Alzheimer's disease patients; cited from earlier work
substantia nigra = conditions: chronic nicotine; lesioning; cited from earlier work
Tourette's syndrome = conditions: in vivo; cited from earlier work
dopamine release = conditions: nucleus accumbens compared with striatum; cited from earlier work
prefrontal neurons = conditions: cited from earlier work
dopaminergic effects = conditions: various behavioral models; cited from earlier work
[3] = test system: nicotinic acetylcholine receptors; assay: inhibition of specific binding of ^3 H-methylcarbamylcholine (^3 H-MCC) in rat brain tissue; conditions: rat cortical receptors; for Oxo/MCC Ratio: IC50 ^3 H-Oxo / IC50 ^3 H-MCC; for IC50: ^3 H-MCC 2 nM, 0° C., 60 min
Source text: The pharmacological properties of the compounds of the invention can be illustrated by determining their capability to inhibit the specific binding of ^3 H-methylcarbamylcholine (^3 H-MCC) (Abood and Grassi, Biochem. Pharmacol., Vol. 35, pp. 4199-4202, (1986)).
^3 H-MCC labels the nicotinic receptors in the CNS. The inhibitory effect on ^3 H-MCC binding reflects the affinity for nicotinic acetylcholine receptors.
Fresh or frozen rat, brain tissue (hippocampus or cortex) was homogenized in assay buffer (50 mM Tris-HCl, pH 7.4, 120 mM NaCl, 5 mM KCl, 2 mM CaCl2, 1 mM MgCl2) and centrifuged for 10 min. at 40.000×g. Pellets were subsequently reconstituted in assay buffer and an appropriate amount of tissue sample was mixed in tubes with ^3 H-methylcarbamylcholine (NEN, NET-951; final concentration 2 nM) and test drug. The tubes were incubated at 0° C. for 60 min. Unbound ligand was separated from bound ligand by vacuum filtration through GF/B filters presoaked in 0.5 % polyethylenimine. Filters were washed three times with 5 ml wash buffer (50 mM Tris-HCl, pH 7.4) and transferred to vials. 4 ml scintillation fluid was added and the radioactivity was measured by scintillation counting. Unspecific binding was measured with 10 μM nicotine.
The IC50 values of the test compounds were determined by nonlinear regression analyses (GraphPad InPlot).
Table I illustrates the affinity of the compounds of the present invention for nicotinic and muscarinic receptors as determined by ^3 H-MCC and ^3 H-Oxo binding to rat cortical receptors. The compounds, however, show selective affinity for nicotinic receptors as compared to muscarinic receptors, i.e OXO/MCC>1.

[4] = target: muscarinic acetylcholine receptors; assay: inhibition of specific binding of ^3 H-Oxotremorine-M (^3 H-Oxo) in rat cortex; conditions: rat cortical receptors; 1.0 nM radioligand, 25° C., 30 min
Source text: Furthermore, the pharmacological properties of the compounds of the invention can also be illustrated by determining their capability to inhibit the specific binding of ^3 H-Oxotremorine-M (^3 H-Oxo). Birdsdall N. J. M., Hulme E. C., and Burgen A. S. V. (1980). "The Character of Muscarinic Receptors in Different Regions of the Rat Brain". Proc. Roy. Soc. London (Series B) 207,1.
^3 H-Oxo labels muscarinic receptor in the CNS (with a preference for agonist domains of the receptors). Three different sites are labelled by ^3 H-Oxo. […] Using the present experimental conditions only the high and medium affinity sites are determined.
The inhibitory effects of compounds on ^3 H-Oxo binding reflects the affinity for muscarinic acetylcholine receptors.
All preparations are performed at 0-4° C. unless otherwise indicated. Fresh cortex (0.1-1 g) from male Wistar rats (150-250 g) is homogenized for 5-10 s in 10 ml 20 mM Hepes pH: 7.4, with an Ultra-Turrax homogenizer. The homogenizer is rinsed with 10 ml of buffer and the combined suspension centrifuged for 15 min. at 40,000×g. The pellet is washed three times with buffer. In each step the pellet is homogenized as before in 2×10 ml of buffer and centrifuged for 10 min. at 40,000×g.
The final pellet is homogenized in 20 mM Hepes pH: 7.4 (100 ml per g of original tissue) and used for binding assay. Aliquots of 0.5 ml is added 25 μl of test solution and 25 μl of ^3 H-Oxotremorine (1.0 nM, final concentration) mixed and incubated for 30 min. at 25° C. Non-specific binding is determined in triplicate using arecoline (1 μg/ml, final concentration) as the test substance. After incubation samples are added 5 ml of ice-cold buffer and poured directly onto Whatman GF/C glass fiber filters under suction and immediately washed 2 times with 5 ml of ice-cold buffer. The amount of radioactivity on the filters are determined by conventional liquid scintillation counting. Specific binding is total binding minus non specific binding.
Test substances are dissolved in 10 ml water (if necessary heated on a steam-bath for less than 5 min.) at a concentration of 2.2 mg/ml. 25-75% inhibition of specific binding must be obtained before calculation of IC50. The test value will be given as IC50 (the concentration (nM) of the test substance which inhibits the specific binding of ^3 H-Oxo by 50%).
IC50 =(applied test substance concentration)×(Cx /Co
where Co is specific binding in control assays and Cx is the specific binding in the test assay. (The calculations assume normal mass-action kinetics).
Table I illustrates the affinity of the compounds of the present invention for nicotinic and muscarinic receptors as determined by ^3 H-MCC and ^3 H-Oxo binding to rat cortical receptors. […]

cognitive function = conditions: age related; cited from earlier work
[5] = target: muscarinic acetylcholine receptors; conditions: read-out: affinity of site labelled by ^3 H-Oxo, cited from earlier work

Compound	Oxo/MCC Ratio [3]	IC50 [3]	IC50 [4]	other results
CN1CCCC1c1cccnc1 (centres unmarked) [nicotine]	–	–	–	attention and memory (attention and memory [1]): improved attention and memory in healthy humans; attention and memory (attention and memory [2]): improved attention and memory; protection against cell loss in the substantia nigra (substantia nigra): may protect against cell loss in the substantia nigra; effects in Tourette's syndrome (Tourette's syndrome): beneficial effects in Tourette's syndrome; stimulation of dopamine release (dopamine release): stimulates dopamine release in the nucleus accumbens more potently than in striatum; reversal of inactivation of prefrontal neurons (prefrontal neurons): nicotinic reversal of inactivation of prefrontal neurons; potentiation of dopaminergic effects (dopaminergic effects): potentiate dopaminergic effects in various behavioral models
CCCNc1oncc1C1=CCCN(C)C1.O=C(O)C(=O)O [Compound 7, 3-(5-Propylamino-4-isoxazolyl)-1,2,5,6-tetrahydro-1-methylpyridine oxalate]	130	40 nM	5200 nM	–
CN1CCC=C(c2cnoc2NCc2ccccc2)C1.O=C(O)C(=O)O [Compound 14, 3-(5-Benzylamino-4-isoxazolyl)-1,2,5,6-tetrahydro-1-methylpyridine oxalate]	47	85 nM	4000 nM	–
CNC1(C)C2CCC(C2)C1(C)C (centres unmarked) [mecamylamine]	–	–	–	cognitive impairment (cognitive function): cause cognitive impairment in an age related way
CCNc1oncc1C1=CCCN(C)C1.O=C(O)C(=O)O [Compound 5, 3-(5-ethylamino-4-isoxazolyl)-1,2,5,6-tetrahydro-1-methylpyridine oxalate]	23	62 nM	1400 nM	–
C[N+](C)(C)CC#CCN1CCCC1=O [^3 H-Oxo, ^3 H-Oxotremorine-M]	–	–	–	Kd ([5]; high affinity site): 1.8 nM; Kd ([5]; medium affinity site): 20 nM; Kd ([5]; third (lowest affinity) site, not determined under present conditions): 3000 nM
CNc1oncc1C1=CCCN(C)C1.O=C(O)C(=O)O [Compound 3, 3-(5-methylamino-4-isoxazolyl)-1,2,5,6-tetrahydro-1-methylpyridine oxalate]	19	230 nM	4400 nM	–

From patent US5994373A, “Substituted azacyclic compounds” (Novo Nordisk A/S Novo Alle DK 2880, priority 1995, dated 1999)
